The values that follow come from article PMC2192565 (The Journal of Experimental Medicine, 1996).

Where no end group is shown, it is not given here.

This experiment addresses HLA-DRB1*0401 (Homo sapiens, UniProt P01903+P01911, A100K/A169T/F76Y/I96L/K127E/L162R/M171V/N62H/P40V/Q125Y/R42H/S133A/S149N/S66Y/V115G/V209L/W38E). Briefly: biochemical. It is filed as binding.

Usually IC50 stands for the concentration that inhibits the measured activity by half. In turn, QNILVSNAPLGPQFP [L60 V] returned a 50% inhibitory concentration (IC50) of 612 nM. Molecule QNILLSNAPVGPQFP [L65 V] registered an IC50 of 1500 nM.

The molecule DYSFLQDSDPDSFQD [Y451 F] came in with a 50% inhibitory concentration (IC50) of 563 nM. The result for QNIQLSNAPLGPQFP [L59 Q] reads 750 nM. For the molecule QNFLLSNAPLGPQFP [I58 F], the 50% inhibitory concentration (IC50) was 55 nM. Regarding QNILFSNAPLGPQFP [L60 F], the IC50 is 1100 nM. The result for QNILLSNVPLGPQFP [A63 V] reads 12 nM.

The molecule QNVLLSNAPLGPQFP [I58 V] showed an IC50 of 957 nM.

As for `CC[C@H](C)[C@H](NC(=O)[C@H](CC(N)=O)NC(=O)[C@@H](N)CCC(N)=O)C(=O)N[C@@H](CC(C)C)C(=O)N[C@@H](CC(C)C)C(=O)N[C@@H](CO)C(=O)N[C@@H](CC(N)=O)C(=O)N[C@@H](C)C(=O)N1CCC[C@H]1C(=O)N[C@@H](CC(C)C)C(=O)NCC(=O)N1CCC[C@H]1C(=O)N[C@@H](CCC(N)=O)C(=O)N[C@@H](Cc1ccccc1)C(=O)N1CCC[C@H]1C(=O)O` [Ty 56-70], the IC50 amounted to 225 nM.

With DFSYLQDSDPDSFQD [Y449 F], the IC50 was 1470 nM. Take DQSYLQDSDPDSFQD [Y449 Q]: the half-inhibitory concentration (IC50) was found to be 918 nM. In turn, QNQLLSNAPLGPQFP [I58 Q] yielded an IC50 of 6770 nM. QNIFLSNAPLGPQFP [L59 F]: the midpoint of inhibition, the IC50, lay at 321 nM. Regarding QNILLSNAQLGPQFP [P64 Q], the 50% inhibitory concentration (IC50) was determined as 290 nM. QNILLSNAVLGPQFP [P64 V] showed an IC50 of 158 nM. QNILLSNQPLGPQFP [A63 Q] had an IC50 of 7760 nM. Turning to QNILQSNAPLGPQFP [L60 Q], the IC50 was found to be 750 nM. In turn, QNILLSNAPQGPQFP [L65 Q] had a half-maximal inhibitory concentration (IC50) of 2000 nM. The result for QNIVLSNAPLGPQFP [L59 V] reads 95 nM.
